Here are results for five compounds from paper PMC10452847 (Cancers, 2023).

Data set [1] relates to RMS559 xenograft. Details: method as in PMID 36097178. The note with it: RMS559 xenograft models; twice daily dosing, nude mice; cited from earlier work.
Data set [2] relates to phosphorylation of FGFR4 and ERK1/2 in RMS559. Nature of the data set: Western blot of RMS559 treated with futibatinib. In kind it is cell-based, human. The note with it: increasing concentrations, 6 h. Here is the method:
Cells were collected with a cell scraper, then pelleted by centrifugation, washed with ice-cold PBS, and lysed in RIPA buffer with 1% HALT Protease and Phosphatase inhibitors. Lysates were sonicated to shear genomic DNA and clarified by centrifugation at 18,000× g for 20 min. The protein concentration of the resulting supernatant was determined by BCA assay. 20 μg of protein was run on NuPage 4–12% BisTris gels (Invitrogen, Carlsbad, CA, USA) and transferred to PVDF membranes (Invitrogen). Membranes were blocked in 5% nonfat dried milk in TBST for 1 h at room temperature and incubated with primary antibody overnight at 4 °C. HRP-conjugated anti-rabbit secondary antibody was used to probe the primary antibody. Protein was visualized using Amersham ECL Western Blotting Detection Reagent (Amersham, UK). The following antibodies were used: pFGFR4 (ab192589, Abcam, Cambridge, UK), FGFR4 (8562, Cell Signaling Technology (CST), Danvers, MA, USA), pERK1/2 (4370, CST), ERK1/2 (4695, CST), and GAPDH (8884, CST). Relative band intensity was quantified in Image Lab software (Version 5.2.1, Bio-Rad, Philadelphia, PA, USA)
(Immunoblotting shows a protein as a band on a membrane.)

A short description of data set [3]: two-drug combination tolerability study. In kind it is in vivo, mice. The conditions noted are these: futibatinib oral M-F three weeks, irinotecan iv Monday for three weeks, vincristine iv once. As to the method:
Figure A4 Two-drug combination tolerability study. (A) Schematic of tolerability study. […] Irinotecan was given via tail vein injection at two dosages (75 mg/kg and 50 mg/kg) on Monday for three weeks. (B) Relative body weights of mice treated with the futibatinib-vincristine or futibatinib-irinotecan combinations.

Data set [4] relates to RH4 xenograft. Nature of the data set: two-drug combination xenograft efficacy study. In kind it is in vivo, NSG mice. The conditions noted are these: futibatinib 15 mg/kg, irinotecan 25 mg/kg, vincristine 0.4 mg/kg, vehicle 39.
The test system of data set [5] is SCMC xenograft. Nature of the data set: two-drug combination xenograft efficacy study. The conditions noted are these: for Days (survival, inset of Figure 4): SCMC xenograft, futibatinib 15 mg/kg, irinotecan 50 mg/kg decreased to 25 mg/kg, vincristine 0.4 mg/kg, vehicle 30. In kind it is in vivo, NSG mice.
Data set [6] concerns RMS559 xenograft. Briefly: triple combination xenograft efficacy study. In kind it is in vivo, NSG mice. The conditions noted are these: for median survival: futibatinib 10 mg/kg oral M-F 3 weeks, irinotecan 6 mg/kg iv once, vincristine 0.4 mg/kg iv once, vehicle 11.
Data set [7] relates to advanced solid tumors with FGFR aberrations. The conditions noted are these: 197 patients with advanced solid tumors with FGFR aberrations; cited from earlier work.
The next data set can be described thus: in vivo. The conditions noted are these: NOD SCID Gamma (NSG), mouse, plasma, po, 25 mg/kg, 25 mg/kg oral gavage, single dose, SCMC tumor-bearing mice.
For data set [8], the system named is RMS559 xenograft. Briefly: two-drug combination xenograft efficacy study. The note with it: for median survival: futibatinib 15 mg/kg, irinotecan 25 mg/kg, vincristine 0.4 mg/kg, vehicle 23.
Data set [9] relates to RMS559 xenograft. Briefly: futibatinib single agent xenograft efficacy study. The conditions noted are these: 5-25 mg/kg daily (SID) oral gavage, three weeks, vs vehicle.
The test system of data set [10] is RH4 xenograft. Briefly: futibatinib single agent xenograft efficacy study. The conditions noted are these: 5-25 mg/kg daily (SID) oral gavage, three weeks, vs vehicle.
In data set [11] the test system is SCMC xenograft. Nature of the data set: futibatinib single agent xenograft efficacy study. The conditions noted are these: 5-25 mg/kg daily (SID) oral gavage, three weeks, vs vehicle.
Data set [12] has as its system mutant FGFR4-driven RMS tumor. Details: method as in PMID 24124571. The conditions noted are these: cited from earlier work.

As to `COCCNc1cc(NC(=O)N2CCCc3cc(CN4CCN(C)CC4=O)c(C=O)nc32)ncc1C#N` [FGF401], in the data set on RMS559 xenograft [1], the “effect on tumor progression” value is “effective at delaying tumor progression”.
Consider `C=CC(=O)N1CC[C@H](n2nc(C#Cc3cc(OC)cc(OC)c3)c3c(N)ncnc32)C1` [futibatinib], for which, in [2], the “phosphorylation of FGFR4 and ERK1/2 (western blot)” value was “inhibited phosphorylation of FGFR4 and a downstream target ERK1/2 in a dose-dependent manner”. Moreover, the “maximum tolerated dosages for the drug combinations” value (“maximum tolerated dosages” for short) in data set [3] is reported as 15 mg/kg. Moreover, the “Days (survival, inset of Figure 4)” value came to 36 days in the data set with RH4 xenograft [4] and 33 days in the data set with SCMC xenograft [5]. Besides, in the data set on RMS559 xenograft [6] (day 11 of treatment, futibatinib 10 mg/kg oral M-F, vehicle 1532), the average tumor volume came out at 1072 mm^3. Besides, the “median survival” value in the data set on RMS559 xenograft [6] is reported as 15 days; in the data set with RMS559 xenograft [8], 23 days. In addition, in data set [7], the “objective response rate (ORR)” value is 13.7%. Further, in the data set “in vivo”, the half-life (commonly the time in which the quantity being followed falls by half) was approximately 4 h. Moreover, the “effect in delaying tumor growth or prolonging survival” value in the data set with RMS559 xenograft [9], with RH4 xenograft [10] and with SCMC xenograft [11] was “no significant effect” each time.
With `CCc1c2c(nc3ccc(OC(=O)N4CCC(N5CCCCC5)CC4)cc13)-c1cc3c(c(=O)n1C2)COC(=O)[C@]3(O)CC` [irinotecan], in data set [3], the “maximum tolerated dosages” value turned out to be 50 mg/kg. Further, the “Days (survival, inset of Figure 4)” value is on record as 51.5 days with RH4 xenograft [4] and 48 days in the data set on SCMC xenograft [5]. The toxicity of dose result with SCMC xenograft [5] (irinotecan 50 mg/kg iv on Monday, SCMC xenograft study) is “toxic”. In addition, the results for the “median survival” value in the data set on RMS559 xenograft [6] and in the data set with RMS559 xenograft [8] were 15 days and 29 days, respectively.
As for `Cc1ccc(C(=O)Nc2ccc(CN3CCN(C)CC3)c(C(F)(F)F)c2)cc1C#Cc1cnc2cccnn12` [ponatinib], the “effect on tumor growth in mice” value in data set [12] is “inhibit mutant FGFR4-driven RMS tumor growth”.
With `CC[C@]1(O)C[C@H]2CN(CCc3c([nH]c4ccccc34)[C@@](C(=O)OC)(c3cc4c(cc3OC)N(C=O)[C@H]3[C@@](O)(C(=O)OC)[C@H](OC(C)=O)[C@]5(CC)C=CCN6CC[C@]43[C@@H]65)C2)C1` [vincristine], the “maximum tolerated dosages” value in data set [3] came to 0.4 mg/kg. Moreover, the results for the “Days (survival, inset of Figure 4)” value with RH4 xenograft [4] and in the data set with SCMC xenograft [5] were 41 days and 37 days, respectively. Moreover, the figures for the “median survival” value in the data set on RMS559 xenograft [6] and in the data set on RMS559 xenograft [8] were 15 days and 23 days, respectively. The average tumor volume in the data set on RMS559 xenograft [8] (day 18 of treatment, futibatinib 15 mg/kg oral M-F 3 weeks, irinotecan 25 mg/kg iv Monday 3 weeks, vincristine 0.4 mg/kg iv once) is reported as 1016 mm^3.
